# Measurements published in ChEMBL document CHEMBL1201862, “PubChem BioAssay data set” (2004).
# The source made the active and inactive calls.
# Assays:
# [1] = Luminescence Cell-Based Dose Confirmation HTS to Identify Activators of 5'UTR Stem-Loop Driven Alpha-Synuclein mRNA Translation in H4 Neuroglioblastoma Cells. [Related pubchem assays: 1829 (Project Summary), 1814 (Primary HTS)]; format: functional
# [2] = Luminescence Cell-Based Dose Response HTS to Identify Activators of Luciferase Translation or Activity in H4 […] Cells. [Related pubchem assays: 1829 (Project Summary), 1814 (Primary HTS)]; format: functional
# BJ [3] = assay: BJ-TERT fibroblast viability loss – cell-based, RAS-independent, luminescence, dose response (AID 1933); format: functional; settings: Homo sapiens
# H4 = assay: Luminescence Cell-Based Dose Response HTS to Identify Activators of 5'UTR Stem-Loop Driven Prion Protein mRNA Translation in H4 Neuroglioblastoma Cells. [Related pubchem assays: 1829 (Project Summary), 1814 (Primary HTS)]; format: functional; settings: Homo sapiens
# [4] = molecular target: T1, Voltage-gated N-type calcium channel alpha-1B subunit/Amyloid beta A4 precursor protein-binding family A member 1 (Homo sapiens, UniProt Q00975+Q02410); format: protein assay
# [5] = molecular target: T2, Heat shock factor protein 1 (Mus musculus, UniProt P38532); assay: decrease of HSF1-responsive luciferase luminescence – cell-based, NIH3T3, dose retest, confirmation (AID 2382); format: functional;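 further: NIH3T3 fibroblasts with HSF1-driven luciferase reporter stressed by proteasome inhibitor MG132; luminescence from HSF1-driven luciferase expression after 8 hours of MG132 stress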
# T2 sequence (P38532 whole entry): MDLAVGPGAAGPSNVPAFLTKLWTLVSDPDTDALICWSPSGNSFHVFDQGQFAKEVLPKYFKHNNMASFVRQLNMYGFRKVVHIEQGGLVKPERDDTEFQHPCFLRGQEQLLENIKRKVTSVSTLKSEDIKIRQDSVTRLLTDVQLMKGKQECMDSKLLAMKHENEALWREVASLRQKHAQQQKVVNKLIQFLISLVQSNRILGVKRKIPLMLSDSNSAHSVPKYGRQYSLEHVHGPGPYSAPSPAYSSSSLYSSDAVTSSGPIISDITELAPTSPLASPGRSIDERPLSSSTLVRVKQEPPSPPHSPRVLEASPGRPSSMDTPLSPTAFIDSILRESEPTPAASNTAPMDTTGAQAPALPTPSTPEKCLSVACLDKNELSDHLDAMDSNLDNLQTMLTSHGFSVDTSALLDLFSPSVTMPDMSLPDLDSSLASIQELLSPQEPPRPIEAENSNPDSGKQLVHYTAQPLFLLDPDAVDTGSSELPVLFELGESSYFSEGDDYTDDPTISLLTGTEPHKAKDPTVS
# BJ [6] = assay: cells; format: functional, cell-based; settings: Homo sapiens
# [7] = molecular target: Luciferin 4-monooxygenase (Photinus pyralis, UniProt P08659); assay: inhibition of purified Photinus pyralis luciferase – biochemical, luminescence, dose response (AID 1891)
# [8] = Luminescence Cell-Based Dose Confirmation HTS to Identify Inhibitors of Platelet Dense Granule Release. [Related pubchem assays: 1663 (Primary HTS), 1678 (Summary of Project)]; format: functional
# [9] = molecular target: T1, Voltage-gated N-type calcium channel alpha-1B subunit/Amyloid beta A4 precursor protein-binding family A member 1; format: protein assay; remark: listed apart in the source
# [10] = molecular target: T3, Kappa-type opioid receptor (Homo sapiens, UniProt P41145); format: functional
# Beta-galactosidase = Beta-galactosidase (Escherichia coli, UniProt Q8VNN2); format: functional
# [11] = molecular target: T4, Sphingosine 1-phosphate receptor 4 (Homo sapiens, UniProt O95977); assay: Fluorescence dose response cell-based high throughput screening assay for antagonists of the Sphingosine 1-Phosphate Receptor 4 (S1P4). [Related pubchem assays: 1524 (Confirmation in triplicates.), 1510 (Primary screen.)]; format: functional
# T4 sequence (O95977 whole entry): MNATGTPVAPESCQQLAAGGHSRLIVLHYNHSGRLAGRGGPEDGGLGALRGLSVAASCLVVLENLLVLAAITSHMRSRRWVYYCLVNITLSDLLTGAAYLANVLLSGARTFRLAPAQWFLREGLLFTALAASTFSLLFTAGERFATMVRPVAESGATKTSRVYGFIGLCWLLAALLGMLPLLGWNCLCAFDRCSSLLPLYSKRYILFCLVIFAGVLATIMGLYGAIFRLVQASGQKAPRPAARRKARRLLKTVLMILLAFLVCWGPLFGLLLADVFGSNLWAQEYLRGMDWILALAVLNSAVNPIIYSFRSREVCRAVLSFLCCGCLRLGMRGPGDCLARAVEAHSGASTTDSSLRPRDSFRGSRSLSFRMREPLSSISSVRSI
# BJ [12] = assay: BJ-TERT-LT-ST fibroblast viability loss – cell-based, RAS-independent, luminescence, dose response (AID 1935); format: functional; settings: Homo sapiens;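 further: BJ fibroblasts immortalized with TERT plus LT and ST oncogenes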
# [13] = molecular target: T3, Kappa-type opioid receptor; format: functional; remark: listed apart in the source
# [14] = DRD fibroblast viability loss – cell-based, non-viral oncogenic, luminescence, dose response (AID 1934); format: functional; settings: Homo sapiens
# [15] = molecular target: Sphingosine 1-phosphate receptor 1 (Homo sapiens, UniProt P21453); format: functional;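 further: Tango beta-arrestin reporter U2OS cells stimulated with S1P near its EC80; inhibitor potency meaning antagonism of receptor activation by the natural agonist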
# [16] = molecular target: Induced myeloid leukemia cell differentiation protein Mcl-1 (Homo sapiens, UniProt Q07820); format: functional
# [17] = molecular target: Glucose-6-phosphate 1-dehydrogenase (Homo sapiens, UniProt P11413); assay: inhibition of Homo sapiens G6PD, dose series – biochemical, fluorescence, selectivity assay for P. falciparum G6PD inhibitor project, dose response (AID 504792); format: functional
# [18] = molecular target: DNA dC->dU-editing enzyme APOBEC-3G (Homo sapiens, UniProt Q9HC16); assay: Dose Response confirmation of small molecule APOBEC3G DNA Deaminase Inhibitors via a fluorescence-based single-stranded DNA deaminase assay. [Related pubchem assays (depositor defined):AID493012, AID493028]; format: functional
# [19] = HEK-293T viability loss after treatment – luminescence, T-cell screen hits, cytotoxicity control for TCR NF-kB inhibitor project, dose response (AID 489026); format: functional, cell-based;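 further: cells exposed to compound about 14 hours before the viability readout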
# CHO = CHO cell viability loss, potency – luminescence, cytotoxicity control for TLR9-MyD88 binding inhibitor project, dose response (AID 588339); format: functional, cell-based, hamster; settings: Cricetulus griseus;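 further: CHO cells stably coexpressing TLR9 and MyD88 fusions from primary screen; compound exposure lasted 48 hours before viability readout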
# [20] = molecular target: Heat shock protein HSP 90-alpha (Homo sapiens, UniProt P07900); format: functional, organism-based
# Vero = assay: viability of Vero cells under compound – cytotoxicity control for flavivirus capping enzyme inhibitors (AID 588742); format: functional; settings: Chlorocebus sabaeus
# BJ [21] = assay: growth inhibition of engineered Ras-driven BJ cells – cell-based, alamar blue fluorescence, cherrypicked samples, dose response (AID 2631); format: functional; settings: Homo sapiens;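 further: confirmatory dose-response assay in RAS-dependent BJ fibroblasts engineered with TERT, LT and ST, with cytotoxicity read by fluorescence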
# Beta Lactamase = Beta Lactamase (Pseudomonas aeruginosa, UniProt Q932Y6); assay: BLA reporter interference, concentration series – BLA reporter cells, FRET fluorescence, artefact control for TLR9-MyD88 binding inhibitor project, dose response (AID 588341); format: cell-based;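 further: cell based assay in CHO-K1 cells stably expressing beta-lactamase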
# Beta-arrestin-1 = Beta-arrestin-1 (Homo sapiens, UniProt P49407); assay: beta-arrestin/AP2 interaction blockers, potency – biochemical, cherry pick 1, beta2-adaptin appendage, flow cytometry, dose response (AID 588783); format: functional
# INS1 = assay: INS-1E survival protection against cytokine death – cell-based, luminescence, retest, dose response (AID 449756); format: functional; settings: Rattus norvegicus;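 further: cell death triggered by IL-1 beta plus TNF-alpha plus IFN-gamma mixture; protective hits raise ATP signal compared with cytokine alone wells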
# Genome polyprotein = Genome polyprotein (dengue virus type 2, UniProt P29990); assay: flavivirus cap methylation enzyme inhibition – biochemical, confirmation dose response, primary screen (AID 588689); format: functional
# DNA topoisomerase = DNA topoisomerase (Yersinia pestis, UniProt A0A2S9PM60); assay: Yersinia topoisomerase I cleavage product accumulation – biochemical, cherry-pick, dose response (AID 588525)
# [22] = molecular target: Beta-2 adrenergic receptor (Homo sapiens, UniProt P07550); assay: ADRB2 activation measured by internalization – cell-based, FAP fluorogen, flow cytometry, cherry pick 1, dose response (AID 588763); format: functional
# Candida albicans = assay: antifungal activity against resistant Candida strain – CaCi-8, fluconazole, Alamar Blue, dry powder, dose response (AID 488807); format: functional, organism-based
# NIH3T3 = assay: mammalian cell viability counter-check – Alamar Blue, fluconazole, dry powder, cytotoxicity control for antifungal drug resistance project, dose response (AID 488809); format: functional, cell-based; settings: Mus musculus
# Hexokinase-1 = Hexokinase-1 (Homo sapiens, UniProt P19367); assay: SAR analysis of small molecule inhibitors of hexokinase domain containing I (HKDC1) in the hexokinase 1 selectivity assay. [Related pubchem assays (depositor defined):AID493160, AID493190]; format: functional
# Hexokinase HKDC1 = Hexokinase HKDC1 (Homo sapiens, UniProt Q2TB90); assay: SAR analysis of small molecule inhibitors of hexokinase domain containing I (HKDC1). [Related pubchem assays (depositor defined):AID493160, AID493190]; format: functional
# [23] = system: Streptococcus sp. 'group A'; assay: Streptococcus pyogenes SK(-)GAS viability under kanamycin – luminescence, BacTiterGlo, confirmation, counter-screen for streptokinase expression inhibitor project, dose response (AID 1900); format: functional, organism-based
# Streptokinase A = molecular target: T5, Streptokinase A (Streptococcus pyogenes serotype M1, UniProt P10520); assay: viability-normalized secreted streptokinase activity reduction – plasminogen activation absorbance, OD405, dose response (AID 1914); format: functional, Streptococcus pyogenes M1 GAS;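 further: secreted streptokinase activity via plasminogen activation per viability signal from cell pellet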
# T5 sequence (P10520 whole entry): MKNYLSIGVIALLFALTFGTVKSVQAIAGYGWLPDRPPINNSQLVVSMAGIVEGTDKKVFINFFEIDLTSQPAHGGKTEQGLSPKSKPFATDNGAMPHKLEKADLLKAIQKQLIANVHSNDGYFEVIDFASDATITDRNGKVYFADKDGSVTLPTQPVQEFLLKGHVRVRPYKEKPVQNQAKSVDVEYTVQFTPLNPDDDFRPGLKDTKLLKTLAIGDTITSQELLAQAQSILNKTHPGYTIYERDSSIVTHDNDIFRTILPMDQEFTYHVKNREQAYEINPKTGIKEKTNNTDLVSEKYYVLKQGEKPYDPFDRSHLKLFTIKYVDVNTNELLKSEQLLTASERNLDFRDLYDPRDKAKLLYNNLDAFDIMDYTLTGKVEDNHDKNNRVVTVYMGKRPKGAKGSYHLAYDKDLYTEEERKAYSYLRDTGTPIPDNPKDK
# Streptococcus = assay: GAS UMAA2166 growth inhibition – luminescence, BacTiterGlo, counter-screen for streptokinase expression inhibitor project, dose response (AID 1915); format: functional, organism-based;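 further: potency for reduction of bacterial viability or growth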
# A-375 [24] = assay: MITF: Counter assay: A375 proliferation Measured in Cell-Based System Using Plate Reader - 2084-03_Inhibitor_Dose_DryPowder_Activity. [Related pubchem assays (depositor defined):AID488944]; format: functional; settings: Homo sapiens
# A-375 [25] = assay: proliferation inhibition in MITF-low A375 cells – cell-based, cherry-pick samples, set 2, counter-screen for MITF modulator project, dose response (AID 540335); format: functional; settings: Homo sapiens
# HEK293 = assay: EBV LMP1 TES2 canonical NF-kB signalling blockers – cell-based, HEK293, luciferase, cherry-pick, dose response (AID 588343); format: functional; settings: Homo sapiens
# cells = format: functional, cell-based
# [26] = molecular target: T6, Nuclear receptor subfamily 0 group B member 1 (Homo sapiens, UniProt P51843); format: functional, cell-based;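 further: HEK293T cells transfected with SF-1 and DAX-1 plus StAR promoter luciferase reporter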
# T6 sequence (P51843 whole entry): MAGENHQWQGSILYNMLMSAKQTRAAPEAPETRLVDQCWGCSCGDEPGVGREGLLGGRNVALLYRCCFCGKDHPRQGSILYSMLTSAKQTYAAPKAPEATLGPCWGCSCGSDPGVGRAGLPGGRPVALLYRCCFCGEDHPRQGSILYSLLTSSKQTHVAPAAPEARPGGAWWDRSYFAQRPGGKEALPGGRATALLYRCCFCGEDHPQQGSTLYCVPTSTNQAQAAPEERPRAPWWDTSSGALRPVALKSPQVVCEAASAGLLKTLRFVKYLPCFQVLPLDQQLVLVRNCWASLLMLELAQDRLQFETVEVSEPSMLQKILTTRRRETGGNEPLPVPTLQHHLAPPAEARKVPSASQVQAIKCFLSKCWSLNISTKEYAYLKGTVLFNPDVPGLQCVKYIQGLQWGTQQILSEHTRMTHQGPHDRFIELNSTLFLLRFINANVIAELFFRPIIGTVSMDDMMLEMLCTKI
# Escherichia coli = assay: microbe, parasite or virus in culture
# T1 sequence (Q00975 whole entry): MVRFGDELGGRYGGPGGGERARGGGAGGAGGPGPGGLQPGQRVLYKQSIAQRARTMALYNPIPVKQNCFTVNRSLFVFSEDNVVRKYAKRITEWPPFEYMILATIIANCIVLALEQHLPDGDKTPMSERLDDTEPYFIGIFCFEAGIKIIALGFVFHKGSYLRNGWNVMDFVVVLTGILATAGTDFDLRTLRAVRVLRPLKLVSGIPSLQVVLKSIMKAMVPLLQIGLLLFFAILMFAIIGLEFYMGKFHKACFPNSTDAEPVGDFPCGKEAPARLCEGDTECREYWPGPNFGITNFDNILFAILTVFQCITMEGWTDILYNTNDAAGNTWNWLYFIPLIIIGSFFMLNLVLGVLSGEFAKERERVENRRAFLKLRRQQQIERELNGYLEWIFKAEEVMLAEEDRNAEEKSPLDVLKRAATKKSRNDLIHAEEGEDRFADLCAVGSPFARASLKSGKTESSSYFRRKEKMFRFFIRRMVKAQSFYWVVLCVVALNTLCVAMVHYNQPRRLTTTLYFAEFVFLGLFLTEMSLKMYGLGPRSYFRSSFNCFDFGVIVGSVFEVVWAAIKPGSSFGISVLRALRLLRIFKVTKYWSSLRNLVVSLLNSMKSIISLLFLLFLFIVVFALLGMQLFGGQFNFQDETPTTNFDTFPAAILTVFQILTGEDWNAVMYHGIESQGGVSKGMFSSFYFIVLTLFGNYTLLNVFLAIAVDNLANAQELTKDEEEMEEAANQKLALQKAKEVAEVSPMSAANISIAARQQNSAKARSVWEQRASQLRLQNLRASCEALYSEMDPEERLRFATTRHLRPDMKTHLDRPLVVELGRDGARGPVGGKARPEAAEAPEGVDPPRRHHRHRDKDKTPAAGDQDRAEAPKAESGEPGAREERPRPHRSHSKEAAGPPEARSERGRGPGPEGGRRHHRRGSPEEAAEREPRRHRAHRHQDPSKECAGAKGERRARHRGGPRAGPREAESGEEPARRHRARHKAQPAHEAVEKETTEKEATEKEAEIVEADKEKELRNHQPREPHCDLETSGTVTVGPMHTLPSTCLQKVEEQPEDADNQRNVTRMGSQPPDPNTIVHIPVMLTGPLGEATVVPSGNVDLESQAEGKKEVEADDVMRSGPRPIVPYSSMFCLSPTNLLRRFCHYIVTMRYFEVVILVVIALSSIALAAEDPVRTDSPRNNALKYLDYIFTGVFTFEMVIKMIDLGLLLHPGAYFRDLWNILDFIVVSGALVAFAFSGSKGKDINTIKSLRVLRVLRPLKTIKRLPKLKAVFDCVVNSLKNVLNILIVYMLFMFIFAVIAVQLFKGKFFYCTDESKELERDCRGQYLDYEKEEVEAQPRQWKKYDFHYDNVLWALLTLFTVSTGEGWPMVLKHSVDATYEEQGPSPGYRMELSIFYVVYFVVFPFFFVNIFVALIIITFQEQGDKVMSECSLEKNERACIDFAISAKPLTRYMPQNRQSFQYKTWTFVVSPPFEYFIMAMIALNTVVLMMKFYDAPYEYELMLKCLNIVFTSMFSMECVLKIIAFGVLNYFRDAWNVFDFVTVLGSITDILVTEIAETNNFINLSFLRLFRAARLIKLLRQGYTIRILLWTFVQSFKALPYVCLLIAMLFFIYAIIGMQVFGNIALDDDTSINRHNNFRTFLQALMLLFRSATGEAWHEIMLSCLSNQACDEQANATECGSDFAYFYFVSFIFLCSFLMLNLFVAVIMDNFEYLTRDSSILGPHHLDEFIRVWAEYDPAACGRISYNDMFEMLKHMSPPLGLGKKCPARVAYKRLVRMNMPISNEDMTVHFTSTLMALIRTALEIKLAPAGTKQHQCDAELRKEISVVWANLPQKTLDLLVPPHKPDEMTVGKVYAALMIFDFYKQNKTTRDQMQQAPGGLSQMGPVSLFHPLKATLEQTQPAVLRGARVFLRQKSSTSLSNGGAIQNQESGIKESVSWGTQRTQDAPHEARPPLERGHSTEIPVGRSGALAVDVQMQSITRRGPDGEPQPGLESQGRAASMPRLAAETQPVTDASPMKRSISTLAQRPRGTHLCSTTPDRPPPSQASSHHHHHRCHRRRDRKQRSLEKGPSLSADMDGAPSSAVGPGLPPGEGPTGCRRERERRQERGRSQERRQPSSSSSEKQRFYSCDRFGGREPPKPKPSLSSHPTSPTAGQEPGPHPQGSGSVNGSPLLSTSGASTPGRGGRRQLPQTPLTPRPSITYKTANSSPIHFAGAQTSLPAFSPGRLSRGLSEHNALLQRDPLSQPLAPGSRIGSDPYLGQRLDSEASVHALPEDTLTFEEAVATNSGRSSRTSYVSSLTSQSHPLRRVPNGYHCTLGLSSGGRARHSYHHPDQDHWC
# T1 sequence (Q02410 whole entry): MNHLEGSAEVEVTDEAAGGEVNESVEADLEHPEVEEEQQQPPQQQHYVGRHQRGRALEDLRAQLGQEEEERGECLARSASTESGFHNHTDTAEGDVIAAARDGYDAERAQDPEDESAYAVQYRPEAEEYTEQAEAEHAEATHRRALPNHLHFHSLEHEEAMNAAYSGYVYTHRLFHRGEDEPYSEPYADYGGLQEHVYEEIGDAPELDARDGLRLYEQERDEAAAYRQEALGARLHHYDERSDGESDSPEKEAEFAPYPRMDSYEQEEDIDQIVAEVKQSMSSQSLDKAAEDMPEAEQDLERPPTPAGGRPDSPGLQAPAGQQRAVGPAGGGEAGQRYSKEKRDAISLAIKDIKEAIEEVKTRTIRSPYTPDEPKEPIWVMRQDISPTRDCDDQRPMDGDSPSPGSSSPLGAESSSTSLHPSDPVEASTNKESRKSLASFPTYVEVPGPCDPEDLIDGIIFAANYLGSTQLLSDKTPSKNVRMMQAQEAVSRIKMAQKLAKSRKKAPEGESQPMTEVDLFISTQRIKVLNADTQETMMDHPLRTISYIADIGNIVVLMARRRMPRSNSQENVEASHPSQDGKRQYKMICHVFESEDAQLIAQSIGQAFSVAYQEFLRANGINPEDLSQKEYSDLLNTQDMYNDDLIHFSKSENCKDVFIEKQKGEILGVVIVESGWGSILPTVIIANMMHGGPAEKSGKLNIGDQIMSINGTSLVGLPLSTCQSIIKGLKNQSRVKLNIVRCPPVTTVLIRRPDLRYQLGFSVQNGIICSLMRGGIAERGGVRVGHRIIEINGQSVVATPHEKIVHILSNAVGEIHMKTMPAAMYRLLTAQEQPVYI
# T3 sequence (P41145 whole entry): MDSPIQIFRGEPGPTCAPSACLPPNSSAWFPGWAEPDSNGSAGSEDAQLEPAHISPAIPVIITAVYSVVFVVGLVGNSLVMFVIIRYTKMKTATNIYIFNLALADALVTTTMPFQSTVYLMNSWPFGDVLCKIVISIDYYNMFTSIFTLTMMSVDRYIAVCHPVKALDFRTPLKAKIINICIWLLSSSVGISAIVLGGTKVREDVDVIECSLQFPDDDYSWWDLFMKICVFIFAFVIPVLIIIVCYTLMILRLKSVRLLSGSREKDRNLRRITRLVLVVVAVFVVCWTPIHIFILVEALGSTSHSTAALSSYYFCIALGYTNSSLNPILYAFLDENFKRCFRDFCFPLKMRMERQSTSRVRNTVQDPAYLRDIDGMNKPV
# Chain of Luciferin 4-monooxygenase (P08659 whole entry): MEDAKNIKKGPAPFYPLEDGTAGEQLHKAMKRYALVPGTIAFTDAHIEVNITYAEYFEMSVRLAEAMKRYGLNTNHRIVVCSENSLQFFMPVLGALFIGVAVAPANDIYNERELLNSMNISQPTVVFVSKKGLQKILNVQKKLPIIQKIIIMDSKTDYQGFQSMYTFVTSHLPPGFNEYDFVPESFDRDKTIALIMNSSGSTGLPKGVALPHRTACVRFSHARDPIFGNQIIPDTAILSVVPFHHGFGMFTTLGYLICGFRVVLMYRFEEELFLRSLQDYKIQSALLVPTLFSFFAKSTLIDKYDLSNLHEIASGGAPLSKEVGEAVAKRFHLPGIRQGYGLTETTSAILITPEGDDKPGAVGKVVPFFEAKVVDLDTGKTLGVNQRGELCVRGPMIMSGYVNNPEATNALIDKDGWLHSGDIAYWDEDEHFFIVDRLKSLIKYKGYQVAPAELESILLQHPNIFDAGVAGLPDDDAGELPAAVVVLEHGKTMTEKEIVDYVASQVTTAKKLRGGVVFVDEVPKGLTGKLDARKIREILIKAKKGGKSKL
# Chain of Beta-arrestin-1 (P49407 whole entry): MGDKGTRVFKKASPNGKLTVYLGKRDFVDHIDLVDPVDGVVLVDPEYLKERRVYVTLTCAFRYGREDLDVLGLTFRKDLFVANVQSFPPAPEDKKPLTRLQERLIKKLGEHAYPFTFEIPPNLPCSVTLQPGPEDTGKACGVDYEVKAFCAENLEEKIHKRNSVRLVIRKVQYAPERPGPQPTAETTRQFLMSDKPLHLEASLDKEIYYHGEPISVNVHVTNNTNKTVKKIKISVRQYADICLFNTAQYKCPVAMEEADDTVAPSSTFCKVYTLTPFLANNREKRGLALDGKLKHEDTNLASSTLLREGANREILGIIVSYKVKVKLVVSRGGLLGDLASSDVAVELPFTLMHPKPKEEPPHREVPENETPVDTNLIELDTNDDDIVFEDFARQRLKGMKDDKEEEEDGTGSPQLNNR
# Chain of Sphingosine 1-phosphate receptor 1 (P21453 whole entry): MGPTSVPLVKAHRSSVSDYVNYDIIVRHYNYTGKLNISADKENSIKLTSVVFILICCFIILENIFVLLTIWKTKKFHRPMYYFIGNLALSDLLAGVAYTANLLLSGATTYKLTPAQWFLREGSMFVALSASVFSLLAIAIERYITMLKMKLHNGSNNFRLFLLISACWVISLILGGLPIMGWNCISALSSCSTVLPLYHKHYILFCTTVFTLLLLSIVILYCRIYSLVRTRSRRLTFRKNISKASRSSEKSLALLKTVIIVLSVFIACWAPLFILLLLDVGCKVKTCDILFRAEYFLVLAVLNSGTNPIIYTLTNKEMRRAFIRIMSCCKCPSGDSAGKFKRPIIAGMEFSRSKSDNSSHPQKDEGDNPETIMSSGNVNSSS
structure (smiles),measurement,setting,value
COc1ccc(OC)c2c1C(=O)C(Cl)=C(Cl)C2=O,EC50,[1],> 120 µM (not active)
same,EC50,[2],> 60 µM (not active)
same,EC50,BJ [3],3.94 µM (inconclusive)
same,EC50,H4,> 120 µM (not active)
same,IC50,[4],9.53 µM (active)
same,EC50,[5],4.56 µM (active)
same,EC50,BJ [6],5.3 µM (active)
same,EC50,[7],> 112 µM (not active)
same,EC50,[8],11.7 µM (active)
same,IC50,[9],0.331 µM (active)
same,IC50,[10],11.8 µM (active)
same,EC50,Beta-galactosidase,> 31.5 µM (inactive)
same,IC50,[11],2.02 µM (active)
same,EC50,BJ [12],5.05 µM (inconclusive)
same,IC50,[13],> 32 µM
same,EC50,[14],5.7 µM (inconclusive)
same,IC50,[15],16.8 µM (not active)
same,IC50,[16],24.8 µM (active)
same,IC50,[17],27 µM (inactive)
same,IC50,[18],7.17 µM (active)
same,IC50,[19],48.3 µM (inactive)
same,IC50,CHO,0.629 µM (active)
same,AC50,[20],3.03 µM (active)
same,CC50,Vero,14.1 µM (active)
same,EC50,BJ [21],4.49 µM (active)
same,IC50,Beta Lactamase,6.76 µM (active)
same,IC50,Beta-arrestin-1,1.64 µM (active)
same,AC50,INS1,6.17 µM (active)
same,IC50,Genome polyprotein,5.23 µM (active)
Cc1ccc2nc(Nc3nc(O)cc(CSc4nnc(C)s4)n3)nc(C)c2c1,AC50,DNA topoisomerase,6.04 µM (active)
Cc1ccc(CNC(=O)CCCCn2c(=O)[nH]c3ccsc3c2=O)cc1,EC50,[22],10.7 µM (inactive)
CCN(CC)C(=O)Cn1c2ccccc2c2nc3n(c(=O)c21)CCS3,AC50,Candida albicans,6.14 µM (active)
same,AC50,NIH3T3,0.596 µM (active)
COc1cc2c(cc1OC)-c1cc(NC(C)c3ccccc3)nc(=O)n1CC2 (stereo unspecified),IC50,Hexokinase-1,> 80 µM (inactive)
same,IC50,Hexokinase HKDC1,> 80 µM (inactive)
Nc1nc2ccccc2n1/N=C/c1ccc(-c2ccccc2)o1,EC50,[1],24.4 µM (active)
same,EC50,[2],51.3 µM (active)
same,EC50,[23],5.7 µM (active)
same,EC50,Streptokinase A,> 150 µM (not active)
same,EC50,Streptococcus,> 150 µM (not active)
same,AC50,A-375 [24],> 35 µM (active)
same,AC50,A-375 [25],> 35 µM (active)
CN(C)c1cccc(C(=O)N/N=C/c2ccccc2F)c1,AC50,HEK293,3.75 µM (active)
same,IC50,cells,> 67.6 µM (inactive)
same,IC50,[26],> 67.6 µM (inactive)
same,AC50,Escherichia coli,134 µM (active)
